Data reported in patent US20230090691A1, “COMPOSITIONS AND METHODS FOR PROMOTING AND/OR MAINTAINING VAGINOVULVAL AND PERIANAL TISSUE VITALITY AND TISSUE HEALTH” (SPINART, LLC, priority 2021, published 2023).
Several values for one entry are separate records, joined by “and”; a condition that tells them apart may be missing. Equal entries are not always repeated. Entries after “also recorded” stand apart in the source; their conditions may differ.

Key:
[1] = test system: urogenital atrophy in breast cancer patients; conditions: study of 46 patients; compared to saline; cited from earlier work
[2] = test system: human keratinocytes (HaCaT); assay: Wound-healing (scratch) assay; assay type: cell-based; conditions: for wound area Basal (0 h): 20 ng/ml wells, immediately after wounding; for wound area Basal (0 h) / % area wound 24 h / % relative Area to Control 24 h / % wound healing 24 h / wound area 24 h: replicates; for wound healing enhanced, compared to the untreated control / Decreased wound area / % area wound 24 h / % relative Area to Control 24 h / % wound healing 24 h / wound area 24 h: 20 ng/ml; for wound healing enhanced, compared to the untreated control: 24 hours; for Decreased wound area: 24 hr
Excerpt: An in vitro scratch assay was used to study cell migration in vitro. [Todaro, G J et al. The initiation of cell division in a contact-inhibited mammalian cell line. J. Cell Physiol. (1965) 66: 325-33]. This method is based on the observation that, upon creation of a new artificial gap or “scratch”, on a confluent cell monolayer, the cells on the edge of the newly created gap will move toward the opening to close the “scratch” until new cell-cell contacts are established. One of the major advantages of this simple method is that it mimics to some extent migration of cell in vivo. For example, removal of part of the endothelium in blood vessels will induce migration of endothelial cells (ECs) into the denuded area to close the wound [Haudenschild, C. et al. Endothelial regeneration. II. Restitution of endothelial continuity. Lab. Invest. (1979) 41: 407-18]. Furthermore, the patterns of migration either as a loosely connected population (e.g., fibroblasts) or as sheets of cells (e.g., epithelial and EECs) also mimic the behavior of these cells during migration in vivo. The scratch assay is particularly suitable to study the regulation of cell migration by cell interaction with extracellular matrix (ECM) and cell-cell interactions.
For the wound-healing assay, HaCaT keratinocytes were seeded overnight in DMEM medium supplemented with 10% fetal bovine serum (FBS) at 80% confluence (190,000 cells per well. The next day, a 2 mm wound was made over the confluent monolayer using a 1 ml pipete tip. Test samples were added to the HaCaT cells, supplemented with 0.5% FBS. The untreated control was 0.5% FBS.
Images were taken before and after 24 hours of treatment, and wound area was quantified using ImageJ software. All data were statistically analyzed.
For seeding cells, cell numbers and viability were determined using Trypan-Blue staining; cells were counted in a Bürker chamber under the microscope. Human keratinocytes (HaCaT cells) were seeded overnight in DMEM medium supplemented with 10% fetal bovine serum (FBS).
Parallel lines were drawn at the bottom of the wells (3 mm separated lines outside the plate). These lines were used as boundaries for scratch images, thus providing an accurate analysis in each well. Cells were seeded at 190,000 cells/well to promote the formation of a monolayer and kept at 37 C for 24 h. Then, 2 mm-wide wounds were made in the confluent monolayer. Wells were washed once with PBS and refilled with DMEM+0.5% FBS. Basal images were taken immediately using a microscope. […] In addition, human epidermal growth factor (hEGF) at 20 ng/ml was included as a positive control, and 0.5% FBS as a basal control.
Plates were placed in the 37° C. incubator and incubated for 24 h to allow the scratch to heal. Microscopic images are shown below. One biological replicate was performed and four technical replicates per condition were used.
Data analysis was performed using ImageJ software. Microscopic images are shown in Results. Statistical analysis (ordinary one-way ANOVA test) was performed to determine the significance between tested samples and basal control.
The percentage of wound area in each well at 24 hr was calculated by dividing the wound area at 24 hr and the wound area immediately after making the wound. The mean value for the four replicates in the Basal Control (untreated) group was obtained and used to normalize each measure in all of the samples and conditions. A bar graph was generated to represent the wound area or wound healing in each of the tested conditions.

[3] = experiment with RS-0198A and RS-0198B

CCN(CC)CC(=O)Nc1c(C)cccc1C [lidocaine]
patients with reduced dyspareunia [1]: 90%

EGF: human epidermal growth factor, positive control at 20 ng/ml
wound area Basal (0 h) [2]: 1324098 pixels and 1346138 pixels and 1134400 pixels and 1741659 pixels
wound area Basal (0 h) ([2]; listed as C + EGF): 1188450 pixels and 1278864 pixels and 1237384 pixels and 1227903 pixels
wound healing enhanced, compared to the untreated control ([2]; experiment with RS012221): 94.0±8.6%
wound healing enhanced, compared to the untreated control [2, 3]: 60.4±15.7%
Decreased wound area ([2]; experiment with RS012221): 94.0±8.6%
Decreased wound area [2, 3]: 60.4 ± 15.7%
% area wound 24 h [2]: 19.877% and 29.524% and 18.706% and 6.405%
% relative Area to Control 24 h [2]: 42.310% and 62.846% and 39.818% and 13.633%
% wound healing 24 h [2]: 57.690% and 37.154% and 60.182% and 86.367%
wound area 24 h [2]: 263185 pixels and 397433 pixels and 212198 pixels and 111545 pixels
% area wound 24 h ([2]; listed as C + EGF): 27.291% and 2.058% and 0.000% and 5.244%
% relative Area to Control 24 h ([2]; listed as C + EGF): 89.630% and 6.758% and 0.000% and 17.222%
% wound healing 24 h ([2]; listed as C + EGF): 10.370% and 93.242% and 100.000% and 82.778%
wound area 24 h ([2]; listed as C + EGF): 24456 pixels and 0 pixels (2×) and 64389 pixels
wound area (result in words) ([2]; 24 hr treatment of HaCaT, compared to the untreated control): significantly decreased wound area
wound healing (result in words) ([2]; 24 h treatment of HaCaT, compared to untreated control, concentrations as in the sentence, listed as hEGF): enhanced wound healing; also recorded: boosted wound healing
